These results are taken from ChEMBL document CHEMBL2169758, “Evaluation of new scaffolds of myeloperoxidase inhibitors by rational design combined with high-throughput virtual screening” (J Med Chem, 2012).

The target in assay [1] is T1, Myeloperoxidase (Homo sapiens) (UniProt P05164).
T1 sequence (whole entry): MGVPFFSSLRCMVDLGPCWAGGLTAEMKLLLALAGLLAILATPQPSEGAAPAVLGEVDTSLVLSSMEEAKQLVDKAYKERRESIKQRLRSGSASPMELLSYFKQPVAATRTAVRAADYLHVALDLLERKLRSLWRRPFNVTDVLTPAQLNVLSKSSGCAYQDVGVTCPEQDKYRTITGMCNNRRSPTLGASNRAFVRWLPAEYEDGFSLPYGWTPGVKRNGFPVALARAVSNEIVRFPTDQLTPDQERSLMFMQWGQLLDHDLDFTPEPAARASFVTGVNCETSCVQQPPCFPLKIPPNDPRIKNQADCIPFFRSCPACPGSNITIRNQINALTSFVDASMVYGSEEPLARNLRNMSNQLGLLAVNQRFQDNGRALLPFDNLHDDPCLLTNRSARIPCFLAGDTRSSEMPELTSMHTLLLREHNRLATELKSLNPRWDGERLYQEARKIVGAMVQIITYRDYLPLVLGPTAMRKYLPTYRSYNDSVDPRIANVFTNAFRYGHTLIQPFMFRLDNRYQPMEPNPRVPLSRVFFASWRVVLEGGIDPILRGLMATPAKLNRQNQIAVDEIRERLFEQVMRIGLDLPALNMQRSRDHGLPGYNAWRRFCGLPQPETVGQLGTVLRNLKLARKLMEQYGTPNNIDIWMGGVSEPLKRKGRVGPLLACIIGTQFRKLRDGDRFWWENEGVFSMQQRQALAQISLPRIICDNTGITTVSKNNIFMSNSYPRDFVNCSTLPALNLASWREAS
The assay can be described thus: Inhibition of human recombinant myeloperoxidase-mediated Apo B-100 oxidation on LDL at 50 uM after 5 min by ELISA. On the technique in general: ELISA stands for enzyme-linked immunosorbent assay.

The target in assay [2] is T1, Myeloperoxidase (Homo sapiens). The assay can be described thus: Inhibition of human recombinant myeloperoxidase assessed as compound 1 formation by spectrophotometry in presence of H2O2.
The target is the same in assay [3]. The assay can be described thus: Inhibition of human recombinant myeloperoxidase-mediated Apo B-100 oxidation on LDL at 1.25 uM after 5 min by ELISA.
The target of assay [4] is T2, Myeloperoxidase (Homo sapiens, UniProt P05164).
T2 sequence (P05164 whole entry): T1 sequence (whole entry)
In words: Inhibition of recombinant human myeloperoxidase assessed as taurine chloramine production after 5 mins by spectrophotometry in presence of H2O2. The assay is classed as single protein.

Assay [5] concerns the target T1, Myeloperoxidase (Homo sapiens). In words: Inhibition of human recombinant myeloperoxidase-mediated Apo B-100 oxidation on LDL at 5 uM after 5 min by ELISA.
For assay [6], the target named is T2, Myeloperoxidase. The assay can be described thus: Inhibition of myeloperoxidase.
In assay [7] the target is T1, Myeloperoxidase (Homo sapiens). The assay can be described thus: Inhibition of human recombinant myeloperoxidase assessed as compound 2 formation by spectrophotometry in presence of H2O2.
Assay [8] shares this target. The assay can be described thus: Ratio of apparent rate constant of compound 1 formation to apparent rate constant of compound 2 formation for human recombinant myeloperoxidase.
In assay [9] the target is T2, Myeloperoxidase. The assay can be described thus: Inhibition of recombinant human myeloperoxidase.
In assay [10] the target is T2, Myeloperoxidase. The assay can be described thus: Binding affinity to recombinant human myeloperoxidase.

Each structure is given as a SMILES string. Activity calls are given as the source filed them. The calls are words filed in the database; no cut-off is given here.

Regarding `NC1=Nc2nc3ccccc3n2C(c2ccc(OCC(=O)O)cc2)N1` (stereo not given), the inhibition entry in [1], in assay [3] and in [5] was “inactive” in each case. Also, the Rate constant for compound I formation in assay [2] came to 6.8 ×10⁵ /M/s. Moreover, the IC50 (as a rule, the point on the concentration scale where inhibition reaches its midpoint) at Myeloperoxidase [4] is 3700 nM.
Take `COc1cc(-c2nc(-c3ccccc3)c(-c3ccccc3)[nH]2)ccc1OCC(=O)O`: the inhibition result in assay [1], in assay [3] and in assay [5] was “inactive” throughout. In addition, the Rate constant for compound I formation in assay [2] is 1.9 ×10⁶ /M/s. The IC50 at Myeloperoxidase [4] worked out at 970 nM.
Take `COc1ccc2cc(CN(Cc3ccc(F)cc3)C(=S)NCCCN(C)C)c(O)nc2c1`: the inhibition entry in [1], in assay [3] and in assay [5] was “inactive” throughout. Further, the Rate constant for compound I formation in assay [2] came out at 9.36 ×10⁵ /M/s.
For `C(=N\Nc1nc2ccccc2[nH]1)/c1c[nH]c2ccccc12`, the inhibition entry in assay [1], in [3] and in assay [5] was “inactive” in each case. In assay [2], the Rate constant for compound I formation was 4.1 ×10⁷ /M/s. For the same molecule, the IC50 on Myeloperoxidase [4] amounted to 12000 nM.
For `CC(C)CN1C(=O)C2=NC=NC2=NC1=S`, at Myeloperoxidase [6], 870 nM corresponded to half-maximal inhibition (IC50).
In the case of `Oc1ccccc1CN1CCCN(Cc2ccccc2O)C1`, the results for the inhibition in assay [1], in [3] and in assay [5] were 11%, 62% and 4.5%, respectively. For the same molecule, the Rate constant for compound I formation in [2] came out at 5.1 ×10⁶ /M/s. At Myeloperoxidase [4], the IC50 is 500 nM.
On to `Cn1c(=O)[nH]c(=O)c2c1nc(NCCN)n2CCCOc1ccccc1`, for which the figures for the inhibition in [1], in assay [3] and in assay [5] were 6%, 11% and 2.6%, respectively. Moreover, in assay [7], the Activity was found to be 210 M⁻¹ s⁻¹. Moreover, the Rate constant for compound I formation in assay [2] worked out at 5.1 ×10⁶ /M/s. The Ratio in [8] amounted to 24300. Also, the IC50 on Myeloperoxidase [4] turned out to be 460 nM.
With `NCCc1c[nH]c2ccc(F)cc12`, the IC50 on Myeloperoxidase [9] was determined as 790 nM.
As to `CS(=O)(=O)Nc1ccc([N+](=O)[O-])cc1Oc1ccccc1` [NIMESULIDE], the IC50 on Myeloperoxidase [9] amounted to 2100 nM.
As to `O=C(NO)c1ccccc1O` [SALICYLHYDROXAMIC ACID], the IC50 at Myeloperoxidase [9] came to 3000 nM. For the same molecule, on Myeloperoxidase [10], the Kd (as a rule, the constant that tells how readily two partners part at equilibrium) worked out at 2000 nM.
Take `O=c1c(O)c(-c2ccc(O)c(O)c2)oc2cc(O)cc(O)c12` [QUERCETIN]: inhibition against Myeloperoxidase [6] was half-maximal at 1270 nM (IC50).
In the case of `COc1ccc2cc(CN(Cc3ccc(F)cc3)C(=S)NCCCN(C)C)c(=O)[nH]c2c1`, the IC50 at Myeloperoxidase [4] was 3800 nM.
`COc1cc(OC)c(C2N=C(N)Nc3nc4ccccc4n32)cc1OC` (stereo not given): the inhibition result in assay [1], in [3] and in [5] was “inactive” in each case. Moreover, in [7], the Activity came out at 1.1 M⁻¹ s⁻¹. Besides, in [2], the Rate constant for compound I formation turned out to be 1.4 ×10⁶ /M/s. Besides, the Ratio in assay [8] worked out at 1.27e+06. For the same molecule, the IC50 at Myeloperoxidase [4] is 3500 nM.
`CCC1=CCCc2cc(OC)ccc21`: the midpoint of inhibition against Myeloperoxidase [6], the IC50, lay at 3000 nM.
Regarding `COc1ccccc1N1CCN(C(=O)CSc2ncccc2-c2nc3ccccc3[nH]2)CC1`, the inhibition entry in [1], in assay [3] and in [5] was “inactive” in each case. The IC50 on Myeloperoxidase [4] is 6200 nM.
